Test results: patent US6358885B1, “Substituted phenylheterocyclic herbicides” (Mississippi State University, priority 1992, dated 2002)

Tests used:
[1] = system: wheat; test: Test B preemergence/postemergence greenhouse plant response rating 0 to 10; assay type: in vivo, Triticum aestivum; conditions: 0 to 10 scale
Summary of the method: (§1)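 Test chemicals, dissolved in a non-phytotoxic solvent, were applied to soil at planting and, at the same time, over foliage of seedlings at the one to four leaf stage.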

[2] = system: giant foxtail; test: Test C preemergence/postemergence greenhouse plant response rating 0 to 100; assay type: in vivo, Setaria faberii; conditions: POSTEMERGENCE; for Plant response rating, Giant foxtail: 0 to 100 scale
Summary of the method: (§2)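 Compounds in non-phytotoxic solvent went onto sandy loam before emergence (seeded one day earlier) or onto plants at the one-to-four leaf stage. Duck salad was treated via flood water (~2.5 cm, maintained) over silt loam.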

[3] = system: speedwell; test: as above; assay type: in vivo, Veronica persica; conditions: POSTEMERGENCE; for Plant response rating Speedwell: 0 to 100 scale
From the text: The compounds evaluated in this test were formulated in a non-phytoxic solvent and applied to the soil surface before plant seedlings emerged (preemergence application), to water that covered the soil surface (flood application), and to plants that were in the one-to-four leaf stage (postemergence application). A sandy loam soil was used for the preemergence and postemergence tests, while a silt loam soil was used in the flood test. Water depth was approximately 2.5 cm for the flood test and was maintained at this level for the duration of the test. Plant species in the preemergence and postemergence tests consisted of barley (Hordeum vulgare), bedstraw (Galium aparine), blackgrass (Alopecurus myosuroides), chickweed (Stellaria media), corn (Zea mays), cotton (Gossypium hirsutum), crabgrass (Digitaria sanguinalis), downy brome (Bromus tectorum), giant foxtail (Setaria faberii), lambsquarters (Chenopodium album), morningglory (Ipomoea hederacea), pigweed ([…]), rape (Brassica napus), ryegrass (Lolium multiflorum), sorghum (Sorghum bicolor), soybean (Glycine max), speedwell (Veronica persica), sugar beet (Beta vulgaris), velvetleaf (Abutilon theophrasti), wheat (Triticum aestivum), wild buckwheat (Polygonum convolvulus), and wild oat (Avena fatua). All plant species were planted one day before application of the compound for the preemergence portion-of this test. Plantings of these species were adjusted to produce plants of appropriate size for the post-emergence portion of the test. […] All plant species were grown using normal greenhouse practices. Visual evaluations of injury expressed on treated plants, when compared to untreated controls, were recorded approximately fourteen to twenty one days after application of the test compound. […] A dash (-) response means no test result.

[4] = system: barnyardgrass; test: Test B preemergence/postemergence greenhouse plant response rating 0 to 10; assay type: in vivo, Echinochloa crus-galli; conditions: 0 to 10 scale
Summary of the method: as §1

[5] = system: rape; test: Test C preemergence/postemergence greenhouse plant response rating 0 to 100; assay type: in vivo, Brassica napus; conditions: POSTEMERGENCE; for Plant response rating, Rape: 0 to 100 scale
Summary of the method: as §2

[6] = system: morningglory; test: Test B preemergence/postemergence greenhouse plant response rating 0 to 10; assay type: in vivo, Ipomoea hederacea; conditions: 0 to 10 scale
Summary of the method: as §1

[7] = system: bedstraw; test: Test C preemergence/postemergence greenhouse plant response rating 0 to 100; assay type: in vivo, Galium aparine; conditions: POSTEMERGENCE; for Plant response rating, Bedstraw: 0 to 100 scale
Summary of the method: as §2

[8] = system: wheat; test: as above; assay type: in vivo, Triticum aestivum; conditions: POSTEMERGENCE; for Plant response rating, Wheat: 0 to 100 scale
Summary of the method: as §2

[9] = system: velvetleaf; test: Test B preemergence/postemergence greenhouse plant response rating 0 to 10; assay type: in vivo, Abutilon theophrasti; conditions: 0 to 10 scale
Summary of the method: as §1

[10] = system: cotton; test: as above; assay type: in vivo, Gossypium hirsutum; conditions: 0 to 10 scale
Summary of the method: as §1

[11] = system: blackgrass; test: Test C preemergence/postemergence greenhouse plant response rating 0 to 100; assay type: in vivo, Alopecurus myosuroides; conditions: POSTEMERGENCE; for Plant response rating, Blackgrass: 0 to 100 scale
Summary of the method: as §2

[12] = system: crabgrass; test: as above; assay type: in vivo, Digitaria sanguinalis; conditions: POSTEMERGENCE; for Plant response rating, Crabgrass: 0 to 100 scale
Summary of the method: as §2

[13] = system: wild oat; test: as above; assay type: in vivo, Avena fatua; conditions: POSTEMERGENCE; for Plant response rating, Wild oat: 0 to 100 scale
Summary of the method: as §2

## CC(C)OC(=O)COc1cc(-c2nn3c(c2Cl)CCCC3)c(F)cc1Cl [Compound 39]
[1]; POSTEMERGENCE, Rate 50 g/ha
  Plant response rating, Wheat: 4
[1]; PREEMERGENCE, Rate 50 g/ha
  Plant response rating, Wheat: 0
[1]; Rate 200 g/ha, POSTEMERGENCE
  Plant response rating, Wheat: 5
[1]; Rate 200 g/ha, PREEMERGENCE
  Plant response rating, Wheat: 0
[2]; 62 g/ha
  Plant response rating, Giant foxtail: 30
[2]; 125 g/ha
  Plant response rating, Giant foxtail: 60
[2]; Rate 16 g/ha
  Plant response rating (0 to 100), Giant foxtail: 10
[2]; Rate 31 g/ha
  Plant response rating (0 to 100), Giant foxtail: 20
[3]; 62 g/ha
  Plant response rating Speedwell: 95
[3]; 125 g/ha
  Plant response rating Speedwell: 100
[3]; Rate 16 g/ha
  Plant response rating (0 to 100), Speedwell: 90
[3]; Rate 31 g/ha
  Plant response rating (0 to 100), Speedwell: 90
[4]; POSTEMERGENCE, Rate 50 g/ha
  Plant response rating, Barnyardgrass: 4
[4]; POSTEMERGENCE, Rate 200 g/ha
  Plant response rating, Barnyardgrass: 6
[4]; PREEMERGENCE, Rate 50 g/ha
  Plant response rating, Barnyardgrass: 0
[4]; Rate 200 g/ha, PREEMERGENCE
  Plant response rating, Barnyardgrass: 2
[5]; 62 g/ha
  Plant response rating, Rape: 60
[5]; 125 g/ha
  Plant response rating, Rape: 70
[5]; Rate 16 g/ha
  Plant response rating (0 to 100), Rape: 20
[5]; Rate 31 g/ha
  Plant response rating (0 to 100), Rape: 50
[6]; POSTEMERGENCE, Rate 50 g/ha
  Plant response rating, Morningglory: 8
[6]; PREEMERGENCE, Rate 50 g/ha
  Plant response rating, Morningglory: 0
[6]; Rate 200 g/ha, POSTEMERGENCE
  Plant response rating, Morningglory: 9
[6]; Rate 200 g/ha, PREEMERGENCE
  Plant response rating, Morningglory: 2
[7]; 62 g/ha
  Plant response rating, Bedstraw: 70
[7]; 125 g/ha
  Plant response rating, Bedstraw: 100
[7]; Rate 31 g/ha
  Plant response rating (0 to 100), Bedstraw: 60
[8]; 62 g/ha
  Plant response rating, Wheat: 10
[8]; 125 g/ha
  Plant response rating, Wheat: 20
[8]; Rate 16 g/ha
  Plant response rating (0 to 100), Wheat: 10
[8]; Rate 31 g/ha
  Plant response rating (0 to 100), Wheat: 10
[9]; POSTEMERGENCE, Rate 50 g/ha
  Plant response rating, Velvetleaf: 9
[9]; PREEMERGENCE, Rate 50 g/ha
  Plant response rating, Velvetleaf: 2
[9]; Rate 200 g/ha, POSTEMERGENCE
  Plant response rating, Velvetleaf: 10
[9]; Rate 200 g/ha, PREEMERGENCE
  Plant response rating, Velvetleaf: 4
[10]; POSTEMERGENCE, Rate 50 g/ha
  Plant response rating, Cotton: 10
[10]; POSTEMERGENCE, Rate 200 g/ha
  Plant response rating, Cotton: 10
[10]; PREEMERGENCE, Rate 50 g/ha
  Plant response rating, Cotton: 0
[10]; Rate 200 g/ha, PREEMERGENCE
  Plant response rating, Cotton: 0
[11]; 62 g/ha
  Plant response rating, Blackgrass: 30
[11]; 125 g/ha
  Plant response rating, Blackgrass: 40
[11]; Rate 16 g/ha
  Plant response rating (0 to 100), Blackgrass: 10
[11]; Rate 31 g/ha
  Plant response rating (0 to 100), Blackgrass: 10
[12]; 62 g/ha
  Plant response rating, Crabgrass: 20
[12]; 125 g/ha
  Plant response rating, Crabgrass: 30
[12]; Rate 16 g/ha
  Plant response rating (0 to 100), Crabgrass: 10
[12]; Rate 31 g/ha
  Plant response rating (0 to 100), Crabgrass: 10
[13]; 62 g/ha
  Plant response rating, Wild oat: 20
[13]; 125 g/ha
  Plant response rating, Wild oat: 30
[13]; Rate 16 g/ha
  Plant response rating (0 to 100), Wild oat: 10
[13]; Rate 31 g/ha
  Plant response rating (0 to 100), Wild oat: 20

## C=C(Cl)COc1cc(-c2nn3c(c2Cl)CCCC3)c(F)cc1Cl [Compound 40]
[1]; POSTEMERGENCE, Rate 50 g/ha
  Plant response rating, Wheat: 4
[1]; PREEMERGENCE, Rate 50 g/ha
  Plant response rating, Wheat: 0
[1]; Rate 200 g/ha, POSTEMERGENCE
  Plant response rating, Wheat: 6
[1]; Rate 200 g/ha, PREEMERGENCE
  Plant response rating, Wheat: 2
[2]; 62 g/ha
  Plant response rating, Giant foxtail: 60
[2]; 125 g/ha
  Plant response rating, Giant foxtail: 70
[2]; Rate 16 g/ha
  Plant response rating (0 to 100), Giant foxtail: 30
[2]; Rate 31 g/ha
  Plant response rating (0 to 100), Giant foxtail: 40
[3]; 62 g/ha
  Plant response rating Speedwell: 100
[3]; 125 g/ha
  Plant response rating Speedwell: 100
[3]; Rate 16 g/ha
  Plant response rating (0 to 100), Speedwell: 90
[3]; Rate 31 g/ha
  Plant response rating (0 to 100), Speedwell: 95
[4]; POSTEMERGENCE, Rate 50 g/ha
  Plant response rating, Barnyardgrass: 4
[4]; POSTEMERGENCE, Rate 200 g/ha
  Plant response rating, Barnyardgrass: 4
[4]; PREEMERGENCE, Rate 50 g/ha
  Plant response rating, Barnyardgrass: 1
[4]; Rate 200 g/ha, PREEMERGENCE
  Plant response rating, Barnyardgrass: 3
[5]; 62 g/ha
  Plant response rating, Rape: 70
[5]; 125 g/ha
  Plant response rating, Rape: 70
[5]; Rate 16 g/ha
  Plant response rating (0 to 100), Rape: 50
[5]; Rate 31 g/ha
  Plant response rating (0 to 100), Rape: 70
[6]; POSTEMERGENCE, Rate 50 g/ha
  Plant response rating, Morningglory: 3
[6]; PREEMERGENCE, Rate 50 g/ha
  Plant response rating, Morningglory: 1
[6]; Rate 200 g/ha, POSTEMERGENCE
  Plant response rating, Morningglory: 9
[6]; Rate 200 g/ha, PREEMERGENCE
  Plant response rating, Morningglory: 4
[7]; 125 g/ha
  Plant response rating, Bedstraw: 60
[7]; Rate 16 g/ha
  Plant response rating (0 to 100), Bedstraw: 30
[7]; Rate 31 g/ha
  Plant response rating (0 to 100), Bedstraw: 30
[8]; 62 g/ha
  Plant response rating, Wheat: 40
[8]; 125 g/ha
  Plant response rating, Wheat: 50
[8]; Rate 16 g/ha
  Plant response rating (0 to 100), Wheat: 20
[8]; Rate 31 g/ha
  Plant response rating (0 to 100), Wheat: 30
[9]; POSTEMERGENCE, Rate 50 g/ha
  Plant response rating, Velvetleaf: 2
[9]; PREEMERGENCE, Rate 50 g/ha
  Plant response rating, Velvetleaf: 2
[9]; Rate 200 g/ha, POSTEMERGENCE
  Plant response rating, Velvetleaf: 10
[9]; Rate 200 g/ha, PREEMERGENCE
  Plant response rating, Velvetleaf: 8
[10]; POSTEMERGENCE, Rate 50 g/ha
  Plant response rating, Cotton: 10
[10]; POSTEMERGENCE, Rate 200 g/ha
  Plant response rating, Cotton: 10
[10]; PREEMERGENCE, Rate 50 g/ha
  Plant response rating, Cotton: 1
[10]; Rate 200 g/ha, PREEMERGENCE
  Plant response rating, Cotton: 7
[11]; 62 g/ha
  Plant response rating, Blackgrass: 50
[11]; 125 g/ha
  Plant response rating, Blackgrass: 70
[11]; Rate 16 g/ha
  Plant response rating (0 to 100), Blackgrass: 20
[11]; Rate 31 g/ha
  Plant response rating (0 to 100), Blackgrass: 30
[12]; 62 g/ha
  Plant response rating, Crabgrass: 10
[12]; 125 g/ha
  Plant response rating, Crabgrass: 10
[12]; Rate 16 g/ha
  Plant response rating (0 to 100), Crabgrass: 10
[12]; Rate 31 g/ha
  Plant response rating (0 to 100), Crabgrass: 10
[13]; 62 g/ha
  Plant response rating, Wild oat: 30
[13]; 125 g/ha
  Plant response rating, Wild oat: 40
[13]; Rate 16 g/ha
  Plant response rating (0 to 100), Wild oat: 20
[13]; Rate 31 g/ha
  Plant response rating (0 to 100), Wild oat: 20
